Laboratory results as given in patent publication US20130158075A1, “HETEROCYCLIC COMPOUNDS AS DGAT1 INHIBITORS” (PIRAMAL ENTERPRISES LIMITED, priority 2010, published 2013).

Target: T1, hDGAT1 (Homo sapiens, UniProt O75907)
T1 construct: made in house; host or cells: Sf9 insect cells (baculovirus); microsomal fraction
T1 sequence (O75907 1-488): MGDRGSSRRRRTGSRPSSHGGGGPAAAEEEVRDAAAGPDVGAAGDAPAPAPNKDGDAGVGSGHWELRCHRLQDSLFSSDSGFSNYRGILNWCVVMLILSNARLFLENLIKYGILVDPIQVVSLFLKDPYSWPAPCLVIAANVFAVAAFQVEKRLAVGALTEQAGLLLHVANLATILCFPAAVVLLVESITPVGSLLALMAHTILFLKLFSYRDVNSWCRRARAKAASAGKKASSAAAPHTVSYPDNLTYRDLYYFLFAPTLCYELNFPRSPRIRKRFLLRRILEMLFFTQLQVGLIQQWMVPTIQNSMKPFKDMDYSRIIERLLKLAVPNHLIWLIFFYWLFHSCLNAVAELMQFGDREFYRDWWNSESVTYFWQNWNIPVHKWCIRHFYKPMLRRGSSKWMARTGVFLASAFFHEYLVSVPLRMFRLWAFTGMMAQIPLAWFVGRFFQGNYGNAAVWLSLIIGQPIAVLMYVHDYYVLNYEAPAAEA
Assay: In-vitro DGAT1 assay with hDGAT1 microsomes from Sf9 cells (14C oleoyl CoA, scintillation counting)
Assay type: biochemical
Conditions: at 1 μM
Summary of the method: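 Microsomes from Sf9 cells infected with hDGAT1 baculovirus (MOI 5, harvested ~66-72 h) were incubated with [14C]oleoyl-CoA and 1,2-dioleoyl-sn-glycerol at 37 °C for 10 min, in duplicate. After alkaline ethanol stop, triglycerides were heptane-extracted and counted by liquid scintillation; percent inhibition was plotted against compound concentration (nM).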

Percentage inhibition of hDGAT1	Compound
++ (>50 % Inhibition)	O=C(Nc1ccc(-c2cnc(CNS(=O)(=O)C(F)(F)F)s2)cc1)Nc1ccccc1Cl [Example 543, N-((5-(4-(3-(2-Chlorophenyl)ureido)phenyl)thiazol-2-yl)methyl)-1,1,1-trifluoro methanesulfonamide]
++ (>50 % Inhibition)	3-(5-(4-(3-(2-Chlorophenyl)ureido)phenyl)thiazol-2-yl)-2,2-diethylpropanoic acid [Example 30]

Same assay, conditions: read-out: Percentage inhibition of hDGAT1

inhibition at 1 µM [%]	Compound
> 50	O=C(O)CC1CCC(c2ncc(-c3ccc(NC(=O)Nc4c(F)cc(F)cc4F)cc3)s2)CC1 (stereo not drawn) [Example 360, 2-(4-(5-(4-(3-(2,4,6-Trifluorophenyl)ureido)phenyl)thiazol-2-yl)cyclohexyl)acetic acid]
> 50	CC(C)(Cc1ncc(-c2ccc(NC(=O)Nc3ccc(C(F)(F)F)cc3)cc2)s1)C(=O)O [Example 32, 2,2-Dimethyl-3-(5-(4-(3-(4-(trifluoromethyl)phenyl)ureido)phenyl)thiazol-2-yl)propanoic acid]
> 50	CC(=O)NC(=O)CC1CCC(c2ncc(-c3ccc(NC(=O)Nc4cc(F)c(F)cc4F)cc3)s2)CC1 (stereo not drawn) [Example 402, N-Acetyl-2-(4-(5-(4-(3-(2,4,5-trifluorophenyl)ureido)phenyl)thiazol-2-yl)cyclohexyl)acetamide]
> 50	O=C(O)CCCc1nc(-c2ccc(NC(=O)Nc3ccc(Cl)cc3Oc3ccccc3)cc2)no1 [Example 322, 4-(3-(4-(3-(4-Chloro-2-phenoxyphenyl)ureido)phenyl)-1,2,4-oxadiazol-5-yl) butanoic acid]
> 50	CC(C)(NS(=O)(=O)C(F)(F)F)c1ncc(-c2ccc(NC(=O)Nc3ccccc3Cl)cc2)s1 [Example 562, N-(2-(5-(4-(3-(2-Chlorophenyl)ureido)phenyl)thiazol-2-yl)propan-2-yl)-1,1,1-trifluoromethanesulfonamide]
> 50	O=C(Nc1ccc(-c2cnc(C34CC5CC(CC(C(=O)O)(C5)C3)C4)s2)cc1)Nc1c(F)cccc1F [Example 506, 3-(5-(4-(3-(2,6-Difluorophenyl)ureido)phenyl)thiazol-2-yl)adamantane-1-carboxylic acid]
> 50	Cc1ccc(NC(=O)Nc2ccc(-c3nnc(CCCC(=O)O)s3)cc2)cc1 [Example 282, 4-(5-(4-(3-(p-Tolyl)ureido)phenyl)-1,3,4-thiadiazol-2-yl)butanoic acid]
> 50	CC(C)(CCc1ncc(-c2ccc(NC(=O)Nc3cc(F)cc(F)c3)cc2)s1)C(=O)NS(=O)(=O)C(F)(F)F [Example 581, 4-(5-(4-(3-(3,5-Difluorophenyl)ureido)phenyl)thiazol-2-yl)-2,2-dimethyl-N-((trifluoromethyl)sulfonyl)butanamide]
> 50	CC(C)(CC(=O)O)Cc1ncc(-c2ccc(NC(=O)c3ccc(C(C)(C)C)cc3)cc2)s1 [Example 75, 4-(5-(4-(4-tert-Butylbenzamido)phenyl)thiazol-2-yl)-3,3-dimethylbutanoic acid]
> 50	O=C(O)CCCc1ncc(-c2ccc(NC(=O)Nc3ccccc3Cl)cc2)s1 [Example 51, 4-(5-(4-(3-(2-Chlorophenyl)ureido)phenyl)thiazol-2-yl)butanoic acid]
> 50	CC(C)(Cc1ncc(-c2ccc(NC(=O)Nc3ccc(Cl)cc3Oc3ccccc3)cc2)o1)C(=O)O [Example 124, 3-(5-(4-(3-(4-Chloro-2-phenoxyphenyl)ureido)phenyl)oxazol-2-yl)-2,2-dimethyl propanoic acid]
> 50	O=C(Nc1ccc(-c2cnc(C3CCC(C(=O)O)CC3)s2)cc1)Nc1cccc(C(F)(F)F)c1 (stereo not drawn) [Example 134, 4-(5-(4-(3-(3-(Trifluoromethyl)phenyl)ureido)phenyl)thiazol-2-yl)cyclohexane carboxylic acid]
20 to 50	O=C(Nc1ccc(-c2cnc(C3CCN(S(=O)(=O)C(F)(F)F)CC3)s2)cc1)Nc1ccccc1F [Example 483, 1-(2-Fluorophenyl)-3-(4-(2-(1-((trifluoromethyl)sulfonyl)piperidin-4-yl)thiazol-5-yl)phenyl)urea]
